The values below come from article PMC9837764 (Nature Communications, 2023).

Several values for one entry are separate records, joined by “and”; a condition that tells them apart may be missing. Equal values may be shown once. Read-outs that look alike come from different tables or passages of the source.

Data set [1] has as its system SARS-CoV-2. The data set is described as follows: Combination of RdRp inhibitors with SARS-CoV-2 nsp14 inhibitors in infected Calu-3 cells, synergy. It counts as cell-based. More on the design: EC99 mean: unit not given here. Conditions: for EC50: Severe acute respiratory syndrome coronavirus 2, Calu-3, read-out: EC50 mean; for EC90: Severe acute respiratory syndrome coronavirus 2, Calu-3, read-out: EC90 mean; for EC99 mean: Calu-3 cells, alone or with nsp14 inhibitor at the concentration of the label, unit not given.

In data set [2] the test system is SARS-CoV-2. The data set is described as follows: Cell-associated virus RNA in SARS-CoV-2-infected human primary monocytes. It counts as cell-based. As for the experimental part:
(§1) Human primary monocytes were obtained after 3 h of plastic adherence of peripheral blood mononuclear cells (PBMCs). The use of primary human cell was approved by Institutional Review Board from the Oswaldo Cruz Foundation under protocol 49971421.8.0000.5248 with signed informed consent in accordance with the Hemotherapy Service of Hospital Clementino Fraga from the Federal University of Rio de Janeiro. All volunteers were de-identified. PBMCs were isolated from healthy donors by density gradient centrifugation (Ficoll-Paque, GE Healthcare). PBMCs (2.0 × 10^6 cells) were plated onto 48-well plates (NalgeNunc) in RPMI-1640 without serum for 2–4 h. Nonadherent cells were removed, and the remaining monocytes were maintained in DMEM with 5% human serum (HS; Millipore) and penicillin/streptomycin. The purity of human monocytes was above 95%, as determined by flow cytometric analysis (FACScan; Becton Dickinson) using anti-CD3 (BD Biosciences, cat # 555342, 1:40), anti-CD16 (Southern Biotech, cat # 561313, 1:20) and APC mouse IgG2a isotype (BD Biosciences, cat # 550882, 1/40) and PE mouse IgG1 isotype (BD Biosciences, 555749, 1/20).
Total viral RNA from a culture supernatant and/or monolayers was extracted using QIAamp Viral RNA (Qiagen®) according to the manufacturer’s instructions. Quantitative RT‒PCR was performed using GoTaq® Probe qPCR and RT-qPCR Systems (Promega) in a StepOne™ Real-Time PCR System (Thermo Fisher Scientific) ABI PRISM 7500 Sequence Detection System (Applied Biosystems). Amplifications were carried out in 25 µL reaction mixtures containing 2× reaction mix buffer, […] of each primer, 10 µM of probe, and 5 µL of RNA template. Primers, probes, and cycling conditions recommended by the Centers for Disease Control and Prevention (CDC) protocol were used to detect SARS-CoV-2[52]. The standard curve method was employed for virus quantification. For reference to the cell amounts used, the housekeeping gene RNAse P (F-5′-[…] -3′, R-5′[…] -3′, P-5′-FAM-[…] -BHQ-1-3′) was amplified. The Ct values for this target were compared to those obtained for different cell amounts, 10^7 to 10^2, for calibration.

A further data set concerns TNF-α. Description: TNF-α in supernatant of SARS-CoV-2-infected human primary monocytes. It counts as cell-based. As for the experimental part:
as §1

The next data set concerns IL-6. Description: IL-6 in supernatant of SARS-CoV-2-infected human primary monocytes. In kind it is cell-based. As for the experimental part:
as §1

Data set [3] relates to SARS-CoV-2. The data set is described as follows: Genomic and subgenomic viral RNA in infected Calu-3 cells (RT-PCR). In kind it is cell-based.
The test system of data set [4] is SARS-CoV-2. The data set is described as follows: Yield-reduction assay, SARS-CoV-2 in Calu-3 cells (titers as PFU/mL in Vero cells).
For data set [5], the target named is SARS-CoV-2 RNA polymerase, nsp12, 7, and 8 (Severe acute respiratory syndrome coronavirus 2, UniProt P0DTD1). Description: SARS-CoV-2 RNA polymerase inhibition assay (pyrophosphate luminescence). In kind it is biochemical.
Data set [6] relates to Salmonella typhimurium TA 102. Description: Ames test, strain TA 102. Conditions: Positive Control 5 µg/plate. For orientation: The Ames test uses bacterial strains that need an amino acid and regain growth without it when mutated back.
Where [7] appears, read: infected Calu-3, compound alone at 10 uM.
[8] abbreviates: infected monocytes, drugs at 10 µM, 24 h, listed as RDV.
The mark [9] stands for this setting: Calu-3, 10 µM, 48 h, listed as RDV.

What is called EC50 is the midpoint of the concentration-response curve. In the case of `C[C@H](Cn1cnc2c(N)ncnc21)OCP(=O)(O)O` [Tenofovir, tenofovir], in the data set with SARS-CoV-2 [1], the EC50 was 4300 nM. Moreover, in the data set on SARS-CoV-2 [1] (setting [7]), the “Virus productive titers (Fig3A source data, replicates)” value is 80000 and 88000 and 5000; the “Virus productive titers (Fig3B source data, replicates)” value is 80000 and 88000 and 5000.

In the case of `CC(C)OC(=O)[C@H](C)NP(=O)(OC[C@H]1O[C@@H](n2cnc3c(NCc4ccco4)ncnc32)[C@H](O)[C@@H]1O)Oc1ccccc1` (stereo partly drawn) [MB-711, Phenyl (Isopropoxy-L-alaninyl) Kinetin Riboside Phosphoramidate], in the data set with SARS-CoV-2 [2], the “Cell-associated virus RNA levels in SARS-CoV-2-infected monocytes” value is “reduced cell-associated virus RNA levels in a concentration-dependent manner”; the “Cell-associated virus RNA loads, inhibition (Fig1C source data, per donor)” value is 2 (2×) and 0 and 32 and 30 and 35 and 40 and 45 and 50. Also, in the data set on TNF-α, the “TNF-α levels in the culture supernatant (Fig1D source data, per donor)” value is 1.6 and 1.8 and 0.638 and 2.6 and 5.0 and 4.1. Also, in the data set on IL-6, the “IL-6 levels in the culture supernatant (Fig1E source data, per donor)” value was 2.2 and 1.8 and 0.121 and 4.3 and 3.4 and 5.0 and 1.5 and 2.9. In the data set on SARS-CoV-2 [3], the “Genomic viral RNA (Fig2B source data, replicates)” value is 0.3 and 0.45 and 0.2; the “Subgenomic viral RNA (Fig2B source data, replicates)” value was 0.6 and 0.8 and 0.5. In the data set on SARS-CoV-2 [1], the “Virus productive titers (Fig3A source data, replicates)” value was 46000 and 30000 and 28000; the “Virus productive titers (Fig3B source data, replicates)” value was 46000 and 30000 and 45000. In the data set on SARS-CoV-2 [4], the “Inhibition of SARS-CoV-2 infectious titers (Fig1A source data, replicates)” value was 20 and 7 and 28 and 24 and 64 and 23 and 25 and 50 and 33 and 60 and 57 and 42 and 79 (2×) and 81; the “Inhibition of SARS-CoV-2 infectious titers (Fig1B source data, replicates)” value was 16 (2×) and 20 and 43 and 73 and 50 and 55 and 71 and 77 (2×) and 80 and 75 and 99 and 97 and 95.

One may read the EC90 as the concentration needed for an effect of 90%. As for `COC(=O)N[C@H](C(=O)N1CCC[C@H]1c1nc(-c2ccc(-c3ccc(-c4c[nH]c([C@@H]5CCCN5C(=O)[C@@H](NC(=O)OC)C(C)C)n4)cc3)cc2)c[nH]1)C(C)C` [Daclatasvir, daclatasvir], in the data set on SARS-CoV-2 [1], the EC50 worked out at 700 nM and the 90% effect concentration (EC90) was found to be 3800 nM.

`CCC(CC)COC(=O)[C@H](C)N[P@](=O)(OC[C@H]1O[C@@](C#N)(c2ccc3c(N)ncnn23)[C@H](O)[C@@H]1O)Oc1ccccc1` [Remdesivir, remdesivir, reference compound]: the “Cell-associated virus RNA levels in SARS-CoV-2-infected monocytes” value in the data set with SARS-CoV-2 [2] (Fig. 1c) was “reduced cell-associated virus RNA levels in a concentration-dependent manner”. In addition, in the data set on TNF-α (setting [8]), the “TNF-α levels in the culture supernatant (Fig1D source data, per donor)” value was 1.6 and 1.4 and 0.437 and 0.351 and 5.3 and 4.9 and 4.3 and 6.2. Further, in the data set with IL-6 (setting [8]), the “IL-6 levels in the culture supernatant (Fig1E source data, per donor)” value was 2.2 and 1.5 and 3.0 and 4.2 and 2.9 and 1.1. The “Genomic viral RNA (Fig2B source data, replicates)” value in the data set with SARS-CoV-2 [3] (setting [9]) is 0.221 and 0.22 and 0.2. Further, in the data set with SARS-CoV-2 [3] (setting [9]), the “Subgenomic viral RNA (Fig2B source data, replicates)” value was 0.07 and 0.05 and 0.09. In addition, the EC99 mean with SARS-CoV-2 [1] amounted to 1.1. Besides, the EC50 is 90 nM with SARS-CoV-2 [1]; 150 ± 30 nM in the data set with SARS-CoV-2 [4] (Severe acute respiratory syndrome coronavirus 2, Calu-3); 10 ± 3 nM in the data set on SARS-CoV-2 [4] (Severe acute respiratory syndrome coronavirus 2, Calu-3, 24 h). Besides, the concentration for an effect of 90% (EC90) in the data set with SARS-CoV-2 [1] worked out at 400 nM. Moreover, the “Inhibition of SARS-CoV-2 infectious titers (Fig1B source data, replicates)” value in the data set with SARS-CoV-2 [4] (additional treatment at 24 h, Drug 0.001, Calu-3, 48 h, listed as RDV) was 28 and 35 and 32; in the data set on SARS-CoV-2 [4] (additional treatment at 24 h, Drug 0.01, listed as RDV) it was 40 and 60 and 50; with SARS-CoV-2 [4] (additional treatment at 24 h, Drug 0.1, listed as RDV), 80 and 70 and 60; in the data set with SARS-CoV-2 [4] (additional treatment at 24 h, Drug 1) it was 100; with SARS-CoV-2 [4] (additional treatment at 24 h, Drug 10), 100. The “Inhibition of SARS-CoV-2 infectious titers (Fig1A source data, replicates)” value with SARS-CoV-2 [4] (one treatment, Drug 0.001, Calu-3, MOI 0.1, 48 h, listed as RDV) was 12 and 16 and 10; in the data set with SARS-CoV-2 [4] (one treatment, Drug 0.01, listed as RDV), 30 and 50 and 55; in the data set with SARS-CoV-2 [4] (one treatment, Drug 0.1, listed as RDV), 45 and 50 and 72; with SARS-CoV-2 [4] (one treatment, Drug 1), 100; in the data set with SARS-CoV-2 [4] (one treatment, Drug 10), 100.

Regarding `Cc1nnc(C(=O)NC(C)(C)c2nc(C(=O)NCc3ccc(F)cc3)c(O)c(=O)n2C)o1` [RTG, raltegravir], in the data set on SARS-CoV-2 [1], the EC50 was 4800 nM. The “Effects on SARS-CoV-2 replication” value in the data set on SARS-CoV-2 [1] (alone at 5 µM, Calu-3) is “marginal effects”. In addition, the “Virus productive titers (Fig3A source data, replicates)” value in the data set on SARS-CoV-2 [1] (infected Calu-3, RTG alone at 5uM) was 224000 and 448000.

As to `COC(=O)N[C@H](C(=O)N1CCC[C@H]1C(=O)Nc1ccc([C@@H]2CC[C@@H](c3ccc(NC(=O)[C@@H]4CCCN4C(=O)[C@@H](NC(=O)OC)C(C)C)cc3)N2c2ccc(C(C)(C)C)cc2)cc1)C(C)C` [Ombitasvir, ombitasvir], in the data set with SARS-CoV-2 [1], the EC99 mean is on record as 18, the concentration for a half-maximal effect (EC50) was determined as 400 nM and the EC90 stood at 3300 nM.

In the case of `c1coc(CNc2ncnc3c2ncn3C2CCCCO2)c1` (stereo not shown) [MB-906, 6-furfurylamino-9-(tetrahydropyran-2-yl)−9H-purine], in the data set with SARS-CoV-2 [4] (huh-7 and calu-3 cells (Supplementary Fig. 2)), the “Antiviral activity, SARS-CoV-2 replication” value is given as “impaired”.

On to `NC(=O)c1nc(F)c[nH]c1=O` [Favipiravir, favipiravir], for which, in the data set with SARS-CoV-2 [1], the EC50 is 7800 nM.

For orientation: IC50 means the point on the concentration scale where inhibition reaches its midpoint. Consider `O=P(O)(O)OP(=O)(O)OP(=O)(O)OC[C@H]1O[C@@H](n2cnc3c(NCc4ccco4)ncnc32)[C@H](O)[C@@H]1O` [801-TP, Kinetin ribose 5’-triphosphate], for which the IC50 in data set [5] was 100 ± 3 nM. Further, the “IC50 fold higher than that of GS-443902” value in data set [5] stood at 3 fold. The “SARS-CoV-2 RNA polymerase inhibition (Fig2A source data, replicates)” value in data set [5] (Drug Concentration 0.001) was 4 and 6 and 8; in data set [5] (Drug Concentration 0.01) it was 4 and 5 (2×); in data set [5] (Drug Concentration 0.1), 53 and 50 and 55; in data set [5] (Drug Concentration 1) it was 60 and 47 and 52; in data set [5] (Drug Concentration 10), 70 and 75 and 51.

In the case of `Nc1ccc2cc3ccccc3cc2c1` [2-AA, 2-aminoanthracene, reference compound], the “Mutagenicity TA 102 +S9” value in data set [6] was “+”.

For `CC(C)OC(=O)[C@H](C)N[P@](=O)(OC[C@H]1O[C@@H](n2ccc(=O)[nH]c2=O)[C@](C)(F)[C@@H]1O)Oc1ccccc1` [Sofosbuvir, sofosbuvir], in the data set on SARS-CoV-2 [1] (setting [7]), the “Virus productive titers (Fig3A source data, replicates)” value was 64000 and 24000 and 240000; the “Virus productive titers (Fig3B source data, replicates)” value was 64000 and 24000 and 240000.

For `N#C[C@@]1(c2ccc3c(N)ncnn23)O[C@H](COP(=O)(O)OP(=O)(O)OP(=O)(O)O)[C@@H](O)[C@H]1O` [GS-443902], the “SARS-CoV-2 RNA polymerase inhibition (Fig2A source data, replicates)” value in data set [5] (Drug Concentration 0.001) is 3 (2×) and 5; in data set [5] (Drug Concentration 0.01), 6 and 40 and 5; in data set [5] (Drug Concentration 0.1), 65 and 63 and 80; in data set [5] (Drug Concentration 1), 90 (2×) and 53; in data set [5] (Drug Concentration 10), 99 and 90 and 75.

In the case of `COC(=O)N[C@H](C(=O)N1CCC[C@H]1c1nc2cc([C@H]3CC[C@H](c4cc5nc([C@@H]6CCCN6C(=O)[C@@H](NC(=O)OC)[C@@H](C)OC)[nH]c5cc4F)N3c3cc(F)c(N4CCC(c5ccc(F)cc5)CC4)c(F)c3)c(F)cc2[nH]1)[C@@H](C)OC` [Pibrentasvir, pibrentasvir], in the data set on SARS-CoV-2 [1], the EC99 mean was found to be 19, the concentration for a half-maximal effect (EC50) was 700 nM and the EC90 was found to be 4200 nM.
